Assay results published in US7060273B2, “Methods for inhibiting HIV-1 infection” (priority 2001, dated 2006).

Experiments:
[1] = system: fusion between HeLa-EnvJR-FL and PM1 cells
Experimental: HIV-1 envelope-mediated fusion between HeLa-EnvJR-FL and PM1 cells was detected using a Resonance Energy Transfer (RET) assay.
HIV-1 inhibition data were analyzed according to the Combination Index method of Chou and Talay. The data are modeled according to the median-effect principle, which can be written f=1/[1+(K/c)^m] (1) where f is the fraction affected/inhibited, c is concentration, K is the concentration of agent required to produce the median effect, and m is an empirical coefficient describing the shape of the dose-response curve. Equation (1) is a generalized form of the equations describing Michaelis-Menton enzyme kinetics, Langmuir adsorption isotherms, and Henderson-Hasselbalch ionization equilibria, for which m=1 in all cases. In the present case, K is equal to the IC50 value. K and m are determined by curve-fitting the dose-response curves.
After the best-fit parameters for K and m are obtained for the experimental agents and their combination, Equation (1) is rearranged to allow for calculation of c for a given f.
All concentrations are those required to achieve a given degree of inhibition. Equation (2) is used when the molecules are mutually nonexclusive, i.e., have different sites of action. Since this is the likely scenario for inhibitors of HIV-1 attachment and gp41 fusion intermediates, Equation (2) was used for all Combination Index calculations. […] CI<1 indicates synergy, CI=1 indicates purely additive effects, and CI>1 indicates antagonism. In general, CI values are most relevant at the higher levels of inhibition that are required to achieve a measurable clinical benefit.

HIV = conditions: human, in vivo; cited from earlier work

Substance: enfuvirtide
- concentration of the agent contained in the combination giving 95% inhibition ([1]; 25:1 CD4-IgG2:T-20 mass ratio): 0.044 µg/mL
- dose reduction by the combination ([1]; 95% inhibition, 25:1 mass ratio): 5 fold
- K (equal to IC50), best-fit median effect parameter ([1]; FIG. 8, combination 25:1 CD4-IgG2:T-20): 0.017 µg/mL
- concentration required for inhibition of viral entry by 95% ([1]; agent used alone, or total of 25:1 mass ratio combination): 0.21 µg/mL
- reduction of plasma HIV RNA levels (HIV): ≤ 2 logs
